Measured values from patent publication US20090082322A1, “Gender Differences in Experimental Aortic Aneurysm Formation” (THE REGENTS OF THE UNIVERSITY OF MICHIGAN, priority 2004, published 2009).

How the values were obtained:
MMP-2 = MMP-2 activity in conditioned media of IL-1β stimulated male RASMCs; assay type: cell-based, rat; conditions: 1×10^−10 to 1×10^−6 molar, with IL-1β
Experimental: Experiment I: Adult male and female rat aortic smooth muscle cells (RASMCs) were grown in Dulbecco's modified Eagle medium (DMEM) with 10% fetal bovine serum (FBS). RASMCs at passages four through eight were stimulated in serum-free media for 48 hours with IL-1β at doses encountered in human aortic aneurysms (2 ng/mL). The culture media was collected, and mRNA was extracted from the RASMCs. After reverse transcription to cDNA, gene expression of MMP-2 and TIMP-2 (a major MMP-2 inhibitor) was measured by real-time polymerase chain reaction. MMP-2 protein levels in conditioned media were measured by Western blotting, with MMP-2 and TIMP-2 activity quantified by standard and reverse gelatin zymography. Experiment II: Male RASMCs were incubated in DMEM containing 17-β-estradiol and IL-1β, MMP-2 activity in the conditioned media was then determined.

MMP-9 [1] = assay: MMP-9 activity (gelatin zymography) in media of IL-1β stimulated male RASMCs; assay type: cell-based, Sprague-Dawley rats; conditions: 10^−10 to 10^−6 mol/L, 48 hours with concurrent IL-1β stimulation
Experimental: Experimental interventions were carried out with confluent RASMCs at passages 3 through 8 in serum-free DMEM supplemented with antibiotics. Confluent monolayers of RASMCs were incubated in T-75 plates with IL-1β (2 ng/mL, from Sigma) for 72 hours. This concentration of IL-1β is found in human aortic aneurysms. After 72 hours of IL-1β stimulation, the RASMC-conditioned medium was collected for measurements of TIMP-1 activity, MMP-9 activity, and MMP-9 protein levels. The remaining SMCs were lysed in 1% sodium dodecyl sulfate (SDS), and total cellular protein was determined by a bicinchoninic acid protein assay (Pierce). In separate experiments, the previous protocol was followed, but male RASMCs were incubated with 5 different concentrations of 17-β-estradiol (1×10^−10 to 1×10^−6 mol/L) for 48 hours with concurrent IL-1β stimulation. Zymography supplies were purchased from Novex. MMP distribution after treatment of RASMC with IL-1β and increasing concentrations of 17-β-estradiol was determined. Gelatin substrate zymograms were prepared using precast 10% SDS-polyacrylamide gels containing 1 mg/mL of gelatin. Equal volumes of experimental media samples were diluted into 2× tris-glycine SDS sample buffer and electrophoretically separated under nonreducing conditions. […]

MMP-9 [2] = assay: Aortic MMP-9 immunohistochemistry, ED-1 colocalization and quantitative PCR; assay type: in vivo, Sprague-Dawley rats
Source text: In other experiments, male rats were randomized to implantation of an estrogen pellet or sham implantation (n=13, each). The former involved the subcutaneous implantation of a 21-day slow-release 0.1-mg 17-β-estradiol pellet (Innovative Research of America, Sarasota, Fla.) in the posterior neck. Sham rats underwent the same implantation procedure without insertion of any pellet. This particular estradiol dose results in serum estradiol levels at 2 to 3 weeks of 44.7±6.1 pg/mL compared with 15.0±2.2 pg/mL in control rats (P<0.05). Rat aortas from both groups were subjected to elastase perfusion 5 days later. The aortas were then removed for study 7 or 14 days after elastase perfusion.
Immunohistochemistry was undertaken after deparaffinization, rehydration, and unmasking using Trilogy (Cell Marque Corp, Hot Springs, Ariz.) in a Princess model pressure cooker (Cell Marque). Endogenous peroxidase activity was then blocked using 3% hydrogen peroxide in methanol. To help ensure that rejection was not occurring in elastase-perfused or transplanted animals, anti-T lymphocyte immunohistochemistry was performed. Specifically, antirat CD3 monoclonal antibody (BD Pharmingen, San Diego, Calif.) was used as the primary antibody and mouse IgG Vectastain (Vector Laboratories, Burlingame, Calif.) as the secondary antibody. Rat spleen was used as the positive control for anti-CD3 staining. […]
Expression of MMP-9 and β-actin mRNA was determined using quantitative PCR. […] The resultant cDNA was amplified by Taq Polymerase (Promega, Madison, Wis.) in a SmartCycler quantitative PCR system (Cepheid, Sunnyvale, Calif.). […]
MMP-9 forward primer, CGCCAACTATGACCAGGATA (SEQ ID NO: 1); MMP-9 reverse primer, GTT GCC CCC AGT TAC AGT (SEQ ID NO: 2); β-actin forward primer, ATGGGTCAGAAGGATTCCTATGTG (SEQ ID NO: 3); β-actin reverse primer, CTTCATGAGGTAGTCAGTCAGGTC (SEQ ID NO: 4). […] Quantification of mRNA levels used ΔCt values, calculated by the formula: […]
Expression of the target gene in ratio to β-actin expression was calculated by the formula: […]

In the case of `C[C@]12CC[C@@H]3c4ccc(O)cc4CC[C@H]3[C@@H]1CC[C@@H]2O` [17-β-estradiol], the “MMP-2 activity in male RASMCs” value (MMP-2) is reported as “not altered”, the “MMP-9 activity in male RASMC media” value (MMP-9 [1]) is reported as “no difference” and the “aortic MMP-9 staining” value (MMP-9 [2]; immunohistochemistry, estradiol treated rats compared with sham rats) is reported as “less evident”. For the same molecule, the “aortic MMP-9 mRNA expression” value (MMP-9 [2]; quantitative PCR normalized to β-actin, 7 days after elastase perfusion, sham 0.12±0.04, P=0.11) was 0.0017±0.004 mRNA copies and the “colocalization of aortic ED-1 and MMP-9” value (MMP-9 [2]; rats treated with estradiol compared with sham rats) was “less prominently stained cells”.
